# In patent US20060063784A1, “Method of using substituted pyrazolo [1,5-a] pyrimidines” (priority 2004, published 2006):
# Read-outs that look alike come from different tables or passages of the source.
# Test system: 80S14 (p21-deficient) cells
# Assay: Cytotoxicity assay using isogenic cell lines: IC50 in 80S14 (p21-deficient) cells, SRB
# Type: cell-based, human
# Protocol: Cytotoxicity Assay Using Isogenic Cell Lines: • 1. 80S14 (p21-deficient) cells were cultured in RPMI 1640 medium (Gibco/Invitrogen Life technologies) supplemented with 10% fetal bovine serum (FBS, Gibco) and 10 μg/ml gentamycin (Gibco). Cells were maintained at 37° C. under 7% CO2 • 2. Cells were plated at 6×10^4/ml (0.2 ml/well; 12,000 cells/well) in 96-well microtiter plates (Falcon or Corning/Costar) and incubated at 37° C. overnight (18-24 hours). • 3. 2-5 μl of the test agent [200 μg/ml stock in 20% DMSO/20 mM HEPES, pH 7.5 (Gibco)] was added to each well to achieve a final concentration of 2-5 μg/ml. Cells were incubated with the test compounds for 5 days at 37° C. • 4. Surviving cells were fixed with 50 μl 50% trichloroacetic acid (Sigma; 10% final concentration) for 1 hour at 4° C. • 5. Plates were rinsed twice with water (0.3 ml per wash using MRD8 robot), and allowed to dry. • 6. Sulforhodamine B (SRB) (Sigma; 0.4% in 1% acetic acid, 50 μl per well; MRD8 robot) was added and plates kept at room temperature for 10 minutes. • 7. Excess dye was removed by washing with 1% acetic acid (3 times, 0.3 ml per wash; MRD8 robot) and allowed to dry. • 8. The dye was solubilized in Tris base (Sigma; 10 mM, 150 μl per well). Plates were kept at room temperature for 30 minutes to allow the dye to diffuse. • 9. Absorbance was measured at 540 nm. • 10. The percentage of cells surviving drug treatment relative to control wells (no drug) was determined. • 11. The difference in % cell survival between the two cell lines was calculated. • 12. Compounds producing a difference score of >50 were considered to be selective for the p21-deficient cells and were evaluated further: Determination of selectivity of compounds for p21−/− cells: • 1. 80S14 cells were cultured as described above. • 2. Cells were seeded in 96-well microtiter plates at 12,000 cells/well (either 0.15 ml/well of 8×10^4 cells/ml suspension, or 0.2 ml/well of 6×10^4 cells/ml suspension). Plates were incubated at 37° C. overnight (18-24 hours). • 3. Serial dilutions of the test agent were added to each well. Dilutions were prepared either in 40% DMSO/20% methanol/20 mM HEPES, pH 7.5 (Gibco) or directly in growth medium. One of two dose ranges were used: 5 pM to 50 μM or 170 pg/ml to 10 μg/ml. Cells were incubated with the test compounds for 5 days at 37° C. • 4. Surviving cells were fixed with 50 μl 50% trichloroacetic acid (Sigma; 10% final concentration) for 1 hour at 4° C. • 5. Plates were rinsed extensively in water, and allowed to dry. • 6. Sulforhodamine B (Sigma; 0.4% in 1% acetic acid, 70 μl per well) was added and plates kept at room temperature for 10 minutes. • 7. Excess dye was removed by washing 5 times with 1% acetic acid and plates were allowed to dry. • 8. The dye was solubilized in Tris base (Sigma; 10 mM, 150 μl per well). Plates were placed on a titer plate shaker (Lab Line Instruments) for 5 minutes to allow the dye to diffuse. • 9. Absorbance was measured at 560 nm.
# 10. The drug concentration that inhibits cell proliferation by 50% relative to untreated controls (IC50) was determined from cytotoxicity curves.
# [1] = Homo sapiens, 120 h, 80S14 (p21-deficient) cells, 5 days, SRB, class symbols, read-out: IC50 for 80S14
# [2] = Homo sapiens, 120 h, 80S14 p21-deficient cells, 5 days incubation, SRB, read-out: IC50 for 80SI4
# [3] = 80S14 p21-deficient cells, 5 days incubation, SRB, read-out: IC50 for 80SI4
SMILES,IC50 [1] [µM],IC50 [2] [µM],other results
"O=C(c1ccco1)c1cnn2c(-c3cccc(N4CCCCC4=O)c3)ccnc12 [Example 226, 1-[3-[3-(2-Furanylcarbonyl)pyrazolo-[1,5-a]pyrimidin-7-yl]phenyl}-2-piperidinone]",10 to 50,–,–
"CC(C)C(C)OC(=O)Nc1cccc(-c2ccnc3c(C(=O)c4cccs4)cnn23)c1 (stereo not shown) [Example 191, 1,2-dimethylpropyl 3-[3-(thien-2-ylcarbonyl)pyrazolo[1,5-a]pyrimidin-7-yl]phenylcarbamate]",–,< 1,–
"O=C(Nc1cccc(-c2ccnc3c(C(=O)c4cccs4)cnn23)c1)OCCN1CCCCC1 [Example 180, 2-piperidin-1-ylethyl 3-[3-(thien-2-ylcarbonyl)pyrazolo[1,5-a]pyrimidin-7-yl]phenylcarbamate]",–,1 to 10,–
"O=[N+]([O-])c1cccc(-c2ccnc3c(-c4ccsc4)cnn23)c1 [Example 325, 7-(3-Nitrophenyl)-3-(3-thienyl)pyrazolo[1,5-a]pyrimidine]",10 to 50,–,–
"O=C(c1ccco1)c1cnn2c(-c3cccc(N4CCCC4=O)c3)ccnc12 [Example 228, 1-[3-[3-(2-Furanylcarbonyl)pyrazolo-[1,5-a]pyrimidin-7-yl]phenyl]-2-pyrrolidinone]",10 to 50,–,–
"COc1ccc(-c2ccnc3c(C(=O)c4cccs4)cnn23)cc1NC(=O)c1ccccc1 [Example 315, N-{2-Methoxy-5-[3-(2-thienylcarbonyl)pyrazolo[1,5-a]pyrimidin-7-yl]phenyl}benzamide]",1 to 10,–,–
"COc1cc(/C=C/CNc2cccc(-c3ccnc4c(C(=O)c5cccs5)cnn34)c2)ccc1O [Example 401, [7-(3-{[(2E)-3-(4-Hydroxy-3-methoxyphenyl)prop-2-enyl]amino}phenyl)pyrazolo[1,5-a]pyrimidin-3-yl](thien-2-yl)methanone]",10 to 50,–,–
"COc1ccc(-c2ccnc3c(C(=O)c4cccs4)cnn23)cc1NC(=O)NC(C)C [Example 323, N-Isopropyl-N′-{2-methoxy-5-[3-(2-thienylcarbonyl)pyrazolo[1,5-a]pyrimidin-7-yl]phenyl}urea]",1 to 10,–,–
"CN(C)CCNC(=O)Nc1cccc(-c2ccnc3c(C(=O)c4cccs4)cnn23)c1 [Example 161, N-[2-(dimethylamino)ethyl]-N′-{3-[3-(thien-2-ylcarbonlyl)pyrazolo[1,5-a]pyrimidin-7-yl]phenyl}urea]",–,–,IC50 [3]: 10 to 50 µM
"CC(C)C[C@H](N)C(=O)Nc1cccc(-c2ccnc3c(C(=O)c4cccs4)cnn23)c1 [Example 79, N-1-{3-[3-(thien-2-ylcarbonyl)pyrazolo[1,5-a]pyrimidin-7-yl]phenyl}-L-leucinamide]",–,–,IC50 [3]: 10 to 50 µM
"O=C(Nc1cccc(-c2ccnc3c(C(=O)c4cccs4)cnn23)c1)OCC(Cl)(Cl)Cl [Example 18, 2,2,2-trichlroethyl 3-[3-(thien-2-ylcarbonyl)pyrazolo[1,5-a]pyrimidin-7-yl]phenylcarbamate]",–,–,IC50 [3]: < 1 µM
"CN(C(=O)C1CCC1)c1cccc(-c2ccnc3c(C(=O)c4ccccc4)cnn23)c1 [Example 232, N-[3-(3-Benzoylpyrazolo-[1,5-a]pyrimidin-7-yl)phenyl]-N-methylcyclobutanecarboxamide]",10 to 50,–,–
"O=C(Nc1cccc(-c2ccnc3c(C(=O)c4cccs4)cnn23)c1)OCCN1CCOCC1 [Example 181, 2-morpholin-4-ylethyl 3-[3-(thien-2-ylcarbonyl)pyrazolo[1,5-a]pyrimidin-7-yl]phenylcarbamate]",–,< 1,–
"COc1ccc(OC)c(CC(=O)Nc2cccc(-c3ccnc4c(C(=O)c5cccs5)cnn34)c2)c1 [Example 110, 2-(2,5-dimethoxyphenyl)-N-{3-[3-(thien-2-ylcarbonyl)pyrazolo[1,5-a]pyrimidin-7-yl]phenyl}acetamide]",–,1 to 10,–
"Cc1ccc(C(=O)c2cnn3c(-c4cccc(N(C)C(=O)C5CC5)c4)ccnc23)cc1 [Example 268, N-Methyl-N-[3-[3-(4-methylbenzoyl)pyrazolo[1,5-a]pyrimidin-7-yl]phenyl}-cyclopropanecarboxamide]",10 to 50,–,–
"Cc1cnc2c(C(=O)c3cccs3)cnn2c1-c1cccc(NC(=O)OCCCl)c1 [Example 212, 2-chloroethyl 3-[6-methyl-3-(thien-2-ylcarbonyl)pyrazolo[1,5-a]pyrimidin-7-yl]phenylcarbamate]",–,10 to 50,–
"O=C(c1cccs1)c1cnn2c(-c3cccc(NC(=S)Nc4cccc(-c5ccnc6c(C(=O)c7cccs7)cnn56)c4)c3)ccnc12 [Example 406, N,N′-bis {3-[3-(Thien-2-ylcarbonyl)pyrazolo[1,5-a]pyrimidin-7-yl]phenyl}thiourea]",10 to 50,–,–
"O=C(Nc1cccc(-c2ccnc3c(C(=O)c4cccs4)cnn23)c1)N[C@H]1C[C@@H]1c1ccccc1 [Example 12, N-[(1S,2R)-2-phenylcyclopropyl]-N′-{3-[3-(thien-2-ylcarbonyl)pyrazolo[1,5-a]pyrimidin-7-yl]phenyl}urea]",–,< 1,–
"CCC(C)C(=O)NCC(=O)Nc1cccc(-c2ccnc3c(C(=O)c4cccs4)cnn23)c1 (stereo not shown) [Example 130, 2-methyl-N-[2-oxo-2-({3-[3-(thien-2-ylcarbonyl)pyrazolo[1,5-a]pyrimidin-7-yl]phenyl}amino)ethyl]butanamide]",–,10 to 50,–
"NCC(=O)Nc1cccc(-c2ccnc3c(C(=O)c4cccs4)cnn23)c1 [Example 77, N-1-{3-[3-(thien-2-ylcarbonyl)pyrazolo[1,5-a]pyrimidin-7-yl]phenyl}gylcinamide]",–,–,IC50 [3]: 10 to 50 µM
"O=C(CNC(=O)C1CCC1)Nc1cccc(-c2ccnc3c(C(=O)c4cccs4)cnn23)c1 [Example 127, N-[2-oxo-2-({3-[3-(thien-2-ylcarbonyl)pyrazolo[1,5-a]pyrimidin-7-yl]phenyl}amino)ethyl]cyclobutanecarboxamide]",–,10 to 50,–
"COc1cccc(OC)c1C(=O)Nc1cccc(-c2ccnc3c(C(=O)c4cccs4)cnn23)c1 [Example 101, 2,6-dimethoxy-N-{3-[3-(thien-2-ylcarbonyl)pyrazolo[1,5-a]pyrimidin-7-yl]phenyl}benzamide]",–,< 1,–
"CCOc1cccc(-c2ccnc3c(C(=O)c4cccs4)cnn23)c1 [Example 263, [7-(3-Ethoxyphenyl)pyrazolo[1,5-a]pyrimidin-3-yl]-2-thienyl-methanone]",1 to 10,–,–
"CNc1cccc(-c2ccnc3c(C(=O)c4ccccc4)cnn23)c1 [Example 231, [7-[3-(Methylamino)phenyl]pyrazolo[1,5-a]-pyrimidin-3-yl}phenyl-methanone]",10 to 50,–,–
"O=C(c1ccccc1)c1cnn2c(-c3cccc(N4CCCC4=O)c3)ccnc12 [Example 229, 1-[3-(3-Benzoylpyrazolo[1,5-a]-pyrimidin-7-yl)phenyl]-2-pyrrolidinone]",10 to 50,–,–
"O=C(c1cccs1)c1cnn2c(-c3cccc(-c4ccc(CN5CCOCC5)cc4)c3)ccnc12 [Example 459, {7-[4′-(Morpholin-4-ylmethyl)-1,1′-biphenyl-3-yl]pyrazolo[1,5-a]pyrimidin-3-yl}(thien-2-yl)methanone]",< 1,–,–
"CC(C)(C)c1ccc(C(=O)Nc2cccc(-c3ccnc4c(C(=O)c5cccs5)cnn34)c2)cc1 [Example 287, 4-(tert-butyl)-N-{3-[3-(2-thienylcarbonyl)pyrazolo[1,5-a]pyrimidin-7-yl]phenyl}benzamide]",10 to 50,–,–
"C=CC(C)OC(=O)Nc1cccc(-c2ccnc3c(C(=O)c4cccs4)cnn23)c1 (stereo not shown) [Example 182, 1-methylprop-2-enyl 3-[3-(thien-2-ylcarbonyl)pyrazolo[1,5-a]pyrimidin-7-yl]phenylcarbamate]",–,–,"IC50 (Homo sapiens, 80S14, 120 h, read-out: IC50 for 80SI4 (uM)): < 1 µM"
